How the values were obtained:
[1] = system: KDAC2, 3, 6, and 8; set-up: method as in PMID 26718586; details: cited from earlier work
[2] = system: HOXA9 mRNA in HCT116 cells; assay: qRT-PCR of HOXA9 mRNA in HCT116 cells; type: cell-based, human; details: HCT116, 100 μM, 48 h
Procedure: Total RNA was isolated from cells after 48 h of treatment with compounds 19 and 34 (100 μM) using TRIzol reagent (Life Technologies) following the manufacturer’s instructions. cDNA was obtained by reverse transcription using a SensiFast cDNA Synthesis kit (Meridian Bioscience). qRT-PCR was performed using a Luna Universal qPCR Master Mix (BioLabs) and detected by Quant Studio3. The fold change of gene expression data was calculated by using the ddCT method. All samples were run in sextupled, and the results were presented as mean ± SEM. Detailed sequence of the primers used in the experiments can be found in the list below. • UCP2—Forward: 5′-[…]-3′ • Reverse 5′-[…]-3′ • HOXA9 — Forward: 5′-[…]-3′ • Reverse: 5′-[…]-3′

[3] = molecular target: T1, KAT3B (Homo sapiens, UniProt Q09472); assay: HotSpot KAT assay, KAT3B; type: biochemical; details: enzyme 1 nM, NI = no inhibition at 200 μM, mean ± SD of three independent experiments; for IC50: read-out: IC50 KAT3B (1 nM)
T1 construct: KAT3B (aa 1284–1672, 1 nM); purchased Reaction Biology Corporation
T1 sequence (Q09472 1284-1672): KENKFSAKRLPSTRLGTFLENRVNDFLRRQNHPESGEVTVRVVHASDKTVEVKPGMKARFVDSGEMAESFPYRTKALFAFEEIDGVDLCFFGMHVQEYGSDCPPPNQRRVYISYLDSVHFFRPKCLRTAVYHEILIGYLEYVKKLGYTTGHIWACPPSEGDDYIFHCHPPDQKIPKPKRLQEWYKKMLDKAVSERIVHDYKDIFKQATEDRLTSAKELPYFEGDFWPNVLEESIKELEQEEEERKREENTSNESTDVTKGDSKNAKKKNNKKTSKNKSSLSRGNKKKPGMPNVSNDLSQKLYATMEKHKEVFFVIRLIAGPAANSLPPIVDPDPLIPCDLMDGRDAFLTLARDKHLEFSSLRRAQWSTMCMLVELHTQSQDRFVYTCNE

[4] = system: LC3 and p62 in HeLa cells; assay: Western blot of autophagic markers in HeLa cells; type: cell-based, human; details: increasing doses, 48 h
Procedure: For WB experiments, the cells were lysed in RIPA buffer supplemented with 1× […] protease inhibitor cocktail (Sigma-Aldrich, S8830); 20 μg of total protein was resolved in 13.5% gels by SDS-PAGE. Then, the proteins were transferred to nitrocellulose membranes (Biorad Laboratories). Membranes were blocked for 1 h and incubated overnight with the appropriate primary antibody at 4 °C. After incubation, membranes were washed and incubated with the appropriate secondary antibody (Biorad Laboratories) for 1 h at room temperature. Following primary rabbit monoclonal antibodies H4K16Ac (1:1000, E2B8W, Rabbit mAb#13534, Cell Signalling Technology), KAT8 (1:1000, D5T3R Rabbit mAb #46862 Cell Signalling Technology), GAPDH (1:1000, sc-32233, Santa Cruz Biotechnologies), anti-LC3B (Sigma-Aldrich, L7543), anti-SQSTM1/p62 (Santa Cruz Biotechnology, sc-28,359), and anti-GAPDH (Santa Cruz Biotechnology, sc-32,233). Secondary antibodies: anti-mouse (Bio-Rad Laboratories, 1,706,515) or anti-rabbit (Bio-Rad Laboratories, 1,706,516) IgG-horseradish peroxidase-conjugated antibodies. Detection was performed by ECL Western Blotting Substrate (Biorad Laboratories). Images of blots were acquired through the ChemiDoc Imaging Systems (Biorad Laboratories). The band signals were quantified using ImageJ, and values were normalized to relative controls, depending on the analysis.

[5] = system: HT29 cells; assay: Annexin V/PI analysis, HT29; type: cell-based, human; details: 50 and 100 μM, 72 h, compared to control
Procedure: For the analysis of the progression of cells through cell cycle phases and sub-G1 peak identification, 24 h after plating, cells were treated with the different compounds. After 72 h, both floating and adherent cells were collected and fixed with cold 70% ethanol. At least 24 h after fixation, cells were incubated with 0.025 mg/mL Propidium Iodide for 15 min at room temperature and analyzed. For Annexin V analysis, 24 h after plating, cells were treated with 50 and 100 μM of the compounds. In the case of chloroquine experiments, 10 μM chloroquine (Sigma-Aldrich, A9165) was added 30 min before compounds. 72 h after treatment, both floating and adherent cells were collected and stained with an Annexin V-FITC apoptosis detection kit (ENZO #ALX-850-020-KI). Samples were incubated 15 min in the dark at rt, and 10,000 events were then analyzed.

[6] = system: U937 cells; assay: MTT cell proliferation assay, U937; type: cell-based, human; details: for antiproliferative activity in U937: 10, 25, 50, 100 μM; for IC50: 72 h treatment, MTT
Source text: Human commercially available AML U937, breast cancer MCF7, lung adenocarcinoma NCI-H460, H1299 and A-549, glioblastoma U251, B lymphocyte AHH1 cell lines were maintained in compete 10% foetal bovine serum (FBS,) RPMI 1640 (Euroclone, Milan, IT) medium. Human commercially available colon cancer HCT116 and HT29 lines and cervix adenocarcinoma HeLa cells were maintained in compete 10% FBS Dulbecco’s Modified Eagle Medium (DMEM) high glucose medium (Euroclone). L-Glutamine, FBS, and penicillin streptomycin mixture added to medium were obtained from Euroclone. All cell lines were cultured at 37 °C in a humidified atmosphere of 5% CO2:95% air and were tested for mycoplasma contamination routinely by RT-PCR.
For analysis of cell proliferation, cells were plated in sextuplicate on 96-well plates in complete media. After 24 h, cells were exposed to different drugs for 72 h. The inhibitory effect of different drugs was assessed by MTT (Sigma, St. Louis, MO, USA) colorimetric assays as previously reported.[67] Aqueous DMSO (0.5% v/v) was used as a control (untreated). The results are reported as “viability of drug-treated cells/viability of untreated cells” × 100 and represent the average ±SD of three independent experiments. IC50 values were using fitted by nonlinear regression using GraphPad Prism 8.0.

| IC50 [3] | IC50 ([6]; Homo sapiens, U-937) | IC50 KAT3B (1 nM) [3] | Structure (SMILES) | IC50 [1] | HOXA9 mRNA levels [2] | LC3-II/-I ratio and p62 autophagic markers (WB), HeLa [4] | apoptotic cell population (Annexin V), HT29 [5] | antiproliferative activity in U937 ([6]; 72 h) | inhibition at 50 µM ([6]; Homo sapiens, U-937, 50 μM, 72 h) | inhibition at 100 µM ([6]; Homo sapiens, U-937, 100 μM, 72 h) |
| --- | --- | --- | --- | --- | --- | --- | --- | --- | --- | --- |
|  |  |  | CC1=NN(c2ccc(C(=O)O)cc2)C(=O)/C1=C\c1ccc(-c2cc(C)c(C)cc2[N+](=O)[O-])o1 [VII (C646), reference compound] | 7 to 25 µM |  |  |  |  |  |  |
| > 200 µM | 51.7 ± 9.5 µM |  | O=C(O)c1ccc(N2N=C(c3ccccc3)/C(=C/c3ccc[nH]3)C2=O)cc1 [Compound 34, (Z)-4-(4-((1H-Pyrrol-2-yl)methylene)-5-oxo-3-phenyl-4,5-dihydro-1H-pyrazol-1-yl)benzoic Acid] |  | downregulating also HOXA9 | A similar response | only a slight increase in apoptotic cell population | dose-dependent antiproliferative effects |  |  |
| > 200 µM | 30.1 ± 1.7 µM | no inhibition at 200 μM | CC1=NN(c2ccc(C(=O)O)cc2)C(=O)/C1=C\c1ccc[nH]1 [Compound 19, (Z)-4-(4-((1H-Pyrrol-2-yl)methylene)-3-methyl-5-oxo-4,5-dihydro-1H-pyrazol-1-yl)benzoic Acid] |  |  |  | only a slight increase in apoptotic cell population | dose-dependent antiproliferative effects | ~70% | > 80% |
